Test system: oligodendrocyte precursor cells (OPCs)
Experiment: Growth of OPCs on astrocyte-secreted extracellular matrix
Format: cell-based, mouse
Conditions: for mean process outgrowth of OPCs on astrocyte ECM: astrocytes treated 48 hours, then removed, OPCs plated on matrix; for Enhance OPC outgrowth: OPCs on inhibitory astrocyte matrix, significance class
From the text: The process of remyelination requires oligodendrocyte lineage cells to undergo process outgrowth prior to their expression of mature myelin proteins for repair. Thus, process outgrowth in culture by cells of the oligodendrocyte lineage has been used as one surrogate for myelinating potential in vivo [Keough, M. B.; Rogers, J. A.; Zhang, P.; Jensen, S. K.; Stephenson, E. L.; Chen, T.; Hurlbert, M. G.; Lau, L. W.; Rawji, K. S.; Plemel, J. R. et al. An inhibitor of chondroitin sulfate proteoglycan synthesis promotes central nervous system remyelination. Nat. Commun. 2016, 7, 11312], since an oligodendrocyte needs to elaborate multiple protrusions emanating in several directions to contact many axons, and where these processes then compact around axons to form myelin segments. The presence of CSPGs in culture impairs the process outgrowth of OPCs, and this has been linked to reduced remyelination capacity in vivo [Keough, M. B.; Rogers, J. A.; Zhang, P.; Jensen, S. K.; Stephenson, E. L.; Chen, T.; Hurlbert, M. G.; Lau, L. W.; Rawji, K. S.; Plemel, J. R. et al. An inhibitor of chondroitin sulfate proteoglycan synthesis promotes central nervous system remyelination. Nat. Commun. 2016, 7, 11312]. It was reported previously that astrocytes in culture produce a plate-bound matrix abundant in CSPGs, that is left behind once astrocytes are removed from the plate, and this CSPG-containing matrix inhibits the outgrowth of plated OPCs [Keough, M. B. et al. An inhibitor of chondroitin sulfate proteoglycan synthesis promotes central nervous system remyelination. Nature communications 7, 11312 (2016)] (FIG. 7a). Thus, astrocytes were treated with test compounds for 48 hours and they were then removed from the cell culture plate leaving only their secreted ECM behind (FIG. 7a). When OPCs were plated on the astrocyte matrix, the extent of their process outgrowth over […] of observation was inhibited (FIG. 7b). […] OPCs growing in the absence of astrocyte ECM can reach a mean outgrowth around 300 μm (FIG. 7b,c). […] These compounds were: Ac-4,4-diF-GlcNAc 16 (Ac-4,4-diF-GlcNAc), fluorosamine 3 and its O1-deacetylated analog 10 (Ac-4-F-GlcNAcOH), anomeric O-propanoate 7, anomeric O-butanoate 8 (Ac-4-F-GlcNAcOBu), and the 4-fluorinated GalNAc derivative 13 (Ac-4-F-GalNAc) (FIG. 7c).
In brief, cortices from postnatal days 1-3 mouse brains were dissociated with papain digestion and then plated as a mixed culture for 7 days in a 37° C. incubator at 8.5% CO2 whereupon OPCs and microglia tended to be loosely attached on top of a monolayer of astrocytes; the OPCs and microglia were then shaken off when placed on an orbital shaker at 220 r.p.m. at 37° C. and 5% CO2 overnight. The media containing microglia and OPCs were collected and added to a 100 mm tissue culture dish and left at 37° C. and 5% CO2 for 30 min, to allow preferential adhesion of microglia. The media were collected again, now containing OPCs, and used as the OPC-enriched isolates for experiments. For the remaining adhered cells, largely astrocytes, these were removed with 0.25% trypsin and after centrifugation and washing, these astrocytes were plated at a density of 1.0×10^5 cells in flat bottom 96-well plates coated with 10 μg/ml poly-L-lysine. Cells were grown for 7 days at 37° C. and 5% CO2 in MGM and daily media changes. Astrocytes were carefully removed with EDTA treatment (0.2 g EDTA (Na4) per liter PBS, 30 minutes at 37° C. and 5% CO2) and mechanical dislodgement with a micropipetter. The remaining ECM left behind was covered with PBS at 4° C. until OPCs were seeded. Enriched OPCs from mixed glial cultures were seeded at a density of 5-10×10^4 cells per well in OPC media and grown at 37° C. and 8.5% CO2 for 18-24 h and then were fixed with 4% ice-cold paraformaldehyde at 4° C. for 10 min, rinsed with PBS, and stored at 4° C. until immunocytochemistry. […]

Row | SMILES | mean process outgrowth of OPCs on astrocyte ECM | Enhance OPC outgrowth
1 | CC(=O)NC1C(OC(C)=O)OC(COC(C)=O)[C@H](F)[C@@H]1OC(C)=O (mixture of isomers) [Compound 13, 2-Acetamido-1,3,6-tri-O-acetyl-2,4-dideoxy-4-fluoro-α/β-D-galactopyranose] | effective at improving mean outgrowth of OPCs | 
2 | CC(=O)N[C@H]1[C@H](OC(C)=O)O[C@H](COC(C)=O)[C@@H](OC(C)=O)[C@@H]1OC(C)=O [Compound 1, reference compound] |  | n.s.
3 | CC(=O)NC1C(OC(C)=O)OC(COC(C)=O)C(F)(F)[C@@H]1OC(C)=O (mixture of isomers) [Compound 16, 2-Acetamido-1,3,6-tri-O-acetyl-2,4-dideoxy-4,4-difluoro-α/β-D-xylo-hexopyranose] | effective at improving mean outgrowth of OPCs | 
4 | CC(=O)NC1C(O)OC(COC(C)=O)[C@@H](F)[C@@H]1OC(C)=O (mixture of isomers) [Compound 10] | effective at improving mean outgrowth of OPCs | 
5 | CCCC(=O)OC1OC(COC(C)=O)[C@@H](F)[C@H](OC(C)=O)C1NC(C)=O (mixture of isomers) [Compound 8, 2-Acetamido-3,6-di-O-acetyl-1-O-butanoyl-2,4-dideoxy-4-fluoro-α/β-D-glucopyranose] | effective at improving mean outgrowth of OPCs | 
6 | CCC(=O)OC1OC(COC(C)=O)[C@@H](F)[C@H](OC(C)=O)C1NC(C)=O (stereo partly drawn) [Compound 7, 2-Acetamido-3,6-di-O-acetyl-2,4-dideoxy-4-fluoro-1-O-propanoyl-α/β-D-glucopyranose] | effective at improving mean outgrowth of OPCs | 
7 | CCCC(=O)OC[C@H]1OC(O)[C@H](NC(C)=O)[C@@H](OC(=O)CCC)[C@@H]1F (stereo partly drawn) [Compound 12, 2-Acetamido-3,6-di-O-butanoyl-2,4-dideoxy-4-fluoro-α/β-3-D-glucopyranose] |  | n.s.
8 | CC(=O)NC1C(OC(C)=O)OC(COC(C)=O)[C@@H](F)C1OC(C)=O (stereo partly drawn) [Compound 3, reference compound] | effective at improving mean outgrowth of OPCs | ** (**p < 0.01)

— US12600740B2, “Fluorinated N-acetyl glucosamine analogs and xylose derivatives” (UTI Limited Partnership, priority 2018, dated 2026)
